From patent US7601856B2 (Wyeth, priority 2006, dated 2009)
Where two headings read alike, the source gives them in different places.

Experiments:
[1] = test system: isolated rat bladder strips; test: Inhibition of contractions of isolated rat bladder strips; conditions: for IC50: 0.5 h; for inhibition at 30 µM: read-out: % Inhibition of Contractility @ 30 μM
Method: The compounds of the examples were tested to determine their ability to inhibit contractions of isolated rat bladder strips. See Foster, C. […] Malmgren, A. et al. J.Urol.
Male Sprague-Dawley rats (150-200 g) were obtained from ACE animal suppliers. Animals were allowed free access to food and water.
Animals were euthanized by CO2 asphyxiation followed by a bilateral thoracotomy. […] The bladder was opened and then cut into strips 1-2 mm in width and 7-10 mm in length. The strips were subsequently suspended in a 10 ml tissue bath under an initial resting tension of 1.5 g. The strips were held in place by two surgical clips one of which was attached to a fixed hook while the other was attached to an isometric force transducer. […] The carbachol was then washed out and the tissue allowed to relax to its resting level of activity. Following a further 30 minute period of recovery an additional 15 mM KCl were introduced into the tissue bath. […] Following stabilization of this enhanced level of contractile activity, incremental increases in the concentration of test compound or vehicle were introduced into the tissue bath. Contractile activity was measured for each compound or vehicle concentration during the last minute of a 30 minute challenge.
Isometric force developed by the bladder strips was measured using a force transducer and recorded on a polygraph. Contractile activity was assessed by measuring either the average amplitude of the contractions (baseline to peak force) occurring during a one minute period or, preferably, by integrating the contractile activity with respect to time (one minute measuring period).
The percentage inhibition of contractile activity evoked by each concentration of a given test compounds was used to generate a concentration-response curve.

[2] = concentration eliciting 50% inhibition of pre-drug contractile activity, strips stimulated with additional 15 mM KCl, 30 minute challenge per concentration, read-out: IC50
[3] = maximum percentage inhibition of contractile activity, 30 μM, strips stimulated with additional 15 mM KCl

**Q.** Which IC50 [1, 2] does the source give for `O=C(CC1CCCCC1)Nc1ccc2oc3c(c2c1)CCCCCC3` [Example 65, 2-CYCLOHEXYL-N-[6,7,8,9,10,11-HEXAHYDRO-BENZO[B]-CYCLOOCTA[D]FURAN-2-YL]ACETAMIDE] here?
**A.** Its IC50 is 4 to 10 µM.

**Q.** And the melting point?
**A.** Its melting point is 180 to 181 °C.

**Q.** Which IC50 [1, 2] does the source give for `CCN(CC)C(=O)Nc1ccc2oc3c(c2c1)CCCC3` [Example 84, 1,1-DIETHYL-3-(6,7,8,9-TETRAHYDRO-DIBENZOFURAN-2-YL)-UREA] here?
**A.** The IC50 was 3 to 5 µM.

**Q.** And the melting point?
**A.** The melting point was 179 to 180 °C.

**Q.** Which IC50 [1, 2] does the source give for `CC(C)(C)CC(=O)Nc1ccc2oc3c(c2c1)CCC3` [Example 23, N-(2,3-DIHYDRO-1H-CYCLOPENTA[B]BENZOFURAN-7-YL)-3,3-DIMETHYL-BUTYRAMIDE] here?
**A.** Its IC50 is 0.35 to 0.53 µM.

**Q.** And the melting point?
**A.** The melting point was 195.5 to 197 °C.

**Q.** Which results are given for `O=C(CC1CCCCC1)Nc1ccc2oc3c(c2c1)CCCCC3` [Example 29, 2-CYCLOHEXYL-N-[7,8,9,10-TETRAHYDRO-6H-BENZO[B]-CYCLOHEPTA[d]FURAN-2-YL]ACETAMIDE]?
**A.** IC50 [1, 2]: 1 to 10 µM; melting point: 188 to 189 °C

**Q.** Which IC50 [1, 2] does the source give for `CC(C)(C)CC(=O)Nc1ccc2oc3c(c2c1)CCCCCC3` [Example 62, 3,3-DIMETHYL-N-[6,7,8,9,10,11-HEXAHYDRO-BENZO[B]-CYCLOOCTA[D]FURAN-2-YL]BUTYRAMIDE] here?
**A.** The IC50 was 1 to 5 µM.

**Q.** What about the melting point of the same compound?
**A.** The melting point was 157 to 158 °C.

**Q.** For `CC(C)(C)NC(=O)Nc1ccc2oc3c(c2c1)CCCC3` [Example 83, 1-TERT-BUTYL-3-(6,7,8,9-TETRAHYDRO-DIBENZOFURAN-2-YL)-UREA], which IC50 [1, 2] is on record?
**A.** The IC50 was 4 to 5 µM.

**Q.** And the melting point?
**A.** Its melting point is 310 to 312 °C (dec.).

**Q.** For `CC(C)CC(=O)Nc1ccc2oc3c(c2c1)CCCCCC3` [Example 64, 3-METHYL-N-[6,7,8,9,10,11-HEXAHYDRO-BENZO[B]-CYCLOOCTA[D]-FURAN-2-YL]BUTYRAMIDE], which IC50 [1, 2] is on record?
**A.** Its IC50 is 0.1 to 0.5 µM.

**Q.** And the melting point?
**A.** Its melting point is 154 to 155 °C.

**Q.** With `O=C(CC1CCCCC1)Nc1ccc2oc3c(c2c1)CCCC3` [Example 7, 2-CYCLOHEXYL-N-(6,7,8,9-TETRAHYDRO-DIBENZOFURAN-2-YL)-ACETAMIDE] as the compound, how does the IC50 [1, 2] read?
**A.** The IC50 was 10 to 15 µM.

**Q.** What about the melting point of the same compound?
**A.** The melting point was 189 to 191 °C.

**Q.** With `Nc1ccc(C(=O)Nc2ccc3oc4c(c3c2)CCCC4)cc1` [Example 16, 4-AMINO-N-(6,7,8,9-TETRAHYDRO-DIBENZOFURAN-2-YL)-BENZAMIDE] as the compound, how does the inhibition at 30 µM [1, 3] read?
**A.** Its inhibition at 30 µM is 5 to 10%.

**Q.** And the melting point?
**A.** The melting point was 207 to 208 °C.

**Q.** Which inhibition at 30 µM [1, 3] does the source give for `COc1ccc(C(=O)Nc2ccc3oc4c(c3c2)CCCC4)cc1` [Example 13, 4-METHOXY-N-(6,7,8,9-TETRAHYDRO-DIBENZOFURAN-2-YL)-BENZAMIDE] here?
**A.** The inhibition at 30 µM was 15 to 25%.

**Q.** And the melting point?
**A.** The melting point was 197 to 197.5 °C.

**Q.** For `CC(C)(C)C(=O)Nc1ccc2oc3c(c2c1)CCCC3` [Example 1, 2,2-DIMETHYL-N-(6,7,8,9-TETRAHYDRO-DIBENZOFURAN-2-YL)-PROPIONAMIDE], which IC50 [1, 2] is on record?
**A.** The IC50 was 0.2 to 0.7 µM.

**Q.** What about the melting point of the same compound?
**A.** Its melting point is 210 to 211 °C.

**Q.** For `CN(CCO)CC(=O)Nc1ccc2oc3c(c2c1)CCCCC3` [Example 47, N^2-(2-HYDROXYETHYL)-N^2-METHYL-N′-7,8,9,10-TETRAHYDRO-6H-BENZO[B]CYCLOHEPTA[D]FURAN-2-YLGLYCINAMIDE], which inhibition at 30 µM [1] is on record?
**A.** Its inhibition at 30 µM is 10%.

**Q.** With `CN1CCN(CC(=O)Nc2ccc3oc4c(c3c2)CCCCC4)CC1` [Example 44, 2-(4-METHYLPIPERAZIN-1-YL)-N-7,8,9,10-TETRAHYDRO-6H-BENZO[B]CYCLOHEPTA[D]FURAN-2-YLACETAMIDE] as the compound, how does the IC50 [1] read?
**A.** Its IC50 is 1 to 3 µM.

**Q.** With `O=C(CCc1ccccc1)Nc1ccc2oc3c(c2c1)CCCCC3` [Example 36, 3-PHENYL-N-(7,8,9,10-TETRAHYDRO-6H-BENZO[B]CYCLOHEPTA[D]FURAN-2-YL)PROPANAMIDE] as the compound, how does the IC50 [1, 2] read?
**A.** The IC50 was 3 to 5 µM.

**Q.** With `C[C@H](NC(=O)[C@H](Cc1ccccc1)NC(=O)OCc1ccccc1)C(=O)Nc1ccc2oc3c(c2c1)CCCCC3` [Example 58, N-[(BENZYLOXY)CARBONYL]-L-PHENYLALANYL-N^1-7,8,9,10-TETRAHYDRO-6H-BENZO[B]CYCLOHEPTA[D]FURAN-2-YL-L-ALANINAMIDE] as the compound, how does the inhibition at 30 µM [1, 3] read?
**A.** The inhibition at 30 µM was 30 to 40%.

**Q.** For `O=C(Cc1cccs1)Nc1ccc2oc3c(c2c1)CCCCC3` [Example 37, N-(7,8,9,10-TETRAHYDRO-6H-BENZO[B]CYCLOHEPTA[D]FURAN-2-YL)-2-THIEN-2-YLACETAMIDE], which inhibition at 30 µM [1] is on record?
**A.** Its inhibition at 30 µM is 20 to 40%.

**Q.** Which IC50 [1] does the source give for `CN(C)CCN(C)CC(=O)Nc1ccc2oc3c(c2c1)CCCCC3` [Example 41] here?
**A.** Its IC50 is 1 to 5 µM.

**Q.** Which IC50 [1, 2] does the source give for `COc1cccc(OC)c1C(=O)Nc1ccc2oc3c(c2c1)CCCCCC3` [Example 76, N-(6,7,8,9,10,11-HEXAHYDROBENZO[B]CYCLOOCTA[D]FURAN-2-YL)-2,6-DIMETHOXYBENZAMIDE] here?
**A.** The IC50 was 7 to 14 µM.

**Q.** With `CCN(C)CC(=O)Nc1ccc2oc3c(c2c1)CCCCC3` [Example 46, N^2-ETHYL-N^2-METHYL-N′-7,8,9,10-TETRAHYDRO-6H-BENZO[B]CYCLOHEPTA[D]FURAN-2-YLGLYCINAMIDE] as the compound, how does the IC50 [1] read?
**A.** Its IC50 is 7 to 9 µM.

**Q.** Which inhibition at 30 µM [1, 3] does the source give for `CC(C)(C)OC(=O)NCC(=O)Nc1ccc2oc3c(c2c1)CCCCC3` [Example 51, TERT-BUTYL [2-OXO-2-(7,8,9,10-TETRAHYDRO-6H-BENZO[B]CYCLOHEPTA[D]FURAN-2-YLAMINO)ETHYL]CARBAMATE] here?
**A.** The inhibition at 30 µM was 25 to 40%.

**Q.** Which inhibition at 30 µM [1] does the source give for `NCC(=O)Nc1ccc2oc3c(c2c1)CCCCC3` [Example 52, N^1-7,8,9,10-TETRAHYDRO-6H-BENZO[B]CYCLOHEPTA[D]FURAN-2-YLGLYCINAMIDE] here?
**A.** Its inhibition at 30 µM is 20 to 30%.

**Q.** With `O=C(CCl)Nc1ccc2oc3c(c2c1)CCCCC3` [Example 39, 2-CHLORO-N-7,8,9,10-TETRAHYDRO-6H-BENZO[B]CYCLOHEPTA[D]FURAN-2-YLACETAMIDE] as the compound, how does the inhibition at 30 µM [1] read?
**A.** The inhibition at 30 µM was 15 to 35%.

**Q.** For `O=C(CCl)Nc1ccc2oc3c(c2c1)CCCCCC3` [Example 79, 2-CHLORO-N-6,7,8,9,10,11-HEXAHYDROBENZO[B]CYCLOOCTA[D]FURAN-2-YLACETAMIDE], which IC50 [1] is on record?
**A.** Its IC50 is 0.2 to 0.4 µM.

**Q.** Which IC50 [1, 2] does the source give for `CCCCCC(=O)Nc1ccc2oc3c(c2c1)CCCCC3` [Example 35, N-(7,8,9,10-TETRAHYDRO-6H-BENZO[B]CYCLOHEPTA[D]FURAN-2-YL)HEXANAMIDE] here?
**A.** Its IC50 is 6 to 9 µM.

**Q.** Which IC50 [1, 2] does the source give for `CCCCCC(=O)Nc1ccc2oc3c(c2c1)CCCCCC3` [Example 71, N-(6,7,8,9,10,11-HEXAHYDROBENZO[B]CYCLOOCTA[D]FURAN-2-YL)HEXANAMIDE] here?
**A.** Its IC50 is 0.2 to 1 µM.

**Q.** For `O=C(Nc1ccc2oc3c(c2c1)CCCC3)c1ccc(C(F)(F)F)cc1` [Example 20, N-(6,7,8,9-TETRAHYDRODIBENZO[B,D]FURAN-2-YL)-4-(TRIFLUOROMETHYL)BENZAMIDE], which inhibition at 30 µM [1, 3] is on record?
**A.** The inhibition at 30 µM was 15 to 40%.

**Q.** With `CCCCCCC(=O)Nc1ccc2oc3c(c2c1)CCCCCC3` [Example 82, N-6,7,8,9,10,11-HEXAHYDROBENZO[B]CYCLOOCTA[D]FURAN-2-YLHEPTANAMIDE] as the compound, how does the IC50 [1] read?
**A.** Its IC50 is 0.6 to 2 µM.

**Q.** Which inhibition at 30 µM [1] does the source give for `CCCCC(=O)Nc1ccc2oc3c(c2c1)CCCCCC3` [Example 81, N-6,7,8,9,10,11-HEXAHYDROBENZO[B]CYCLOOCTA[D]FURAN-2-YLPENTANAMIDE] here?
**A.** The inhibition at 30 µM was 10 to 30%.

**Q.** Which IC50 [1, 2] does the source give for `CC(C)(C)OC(=O)N[C@@H](Cc1ccncc1)C(=O)Nc1ccc2oc3c(c2c1)CCCCC3` [Example 55, TERT-BUTYL [(1S)-2-OXO-1-(PYRIDIN-4-YLMETHYL)-2-(7,8,9,10-TETRAHYDRO-6H-BENZO[B]CYCLOHEPTA[D]FURAN-2-YLAMINO)ETHYL]CARBAMATE] here?
**A.** The IC50 was 7 to 10 µM.

**Q.** For `O=C(CCC1CCCC1)Nc1ccc2oc3c(c2c1)CCCCCC3` [Example 70, 3-CYCLOPENTYL-N-(6,7,8,9,10,11-HEXAHYDROBENZO[B]CYCLOOCTA[D]FURAN-2-YL)PROPANAMIDE], which inhibition at 30 µM [1, 3] is on record?
**A.** The inhibition at 30 µM was 15 to 30%.

**Q.** Which inhibition at 30 µM [1, 3] does the source give for `O=C(Nc1ccc2oc3c(c2c1)CCCCCC3)c1ccncc1` [Example 77, N-(6,7,8,9,10,11-HEXAHYDROBENZO[B]CYCLOOCTA[D]FURAN-2-YL)ISONICOTINAMIDE] here?
**A.** The inhibition at 30 µM was 30 to 50%.
